“Also recorded” adds a separate entry of the source. Positions of bridges follow the written chain, without caps; N, C: chain ends. Residues, ends and D or L forms follow the SMILES beside them.
Legend:
human TRPA1 [1] = molecular target: T1, human TRPA1 (Homo sapiens, UniProt O75762); experiment: Inhibition of AITC-induced currents through human TRPA1 in X. laevis oocytes (electrophysiology); assay type: cell-based; details: for residual current (inhibited currents to): human TRPA1, toxin 10 μM, 100 μM AITC, normalized to response without ProTx-I (100%), n = 3–6 oocytes
T1 construct: expressed in transfected cells; host or cells: Xenopus laevis oocytes (mRNA injection)
Experimental: (§1) Currents through human and rat TRPA1 [21] were recorded in X. laevis oocytes expressing these channels. Oocyte isolation, mRNA injection, and experimental recordings have been described previously. All solutions were prepared on the day of the experiment using calcium-free ND-96 containing 96 mM NaCl, 2 mM KCl, 1 mM MgCl2 , and 10 mM HEPES at pH 7.4. Currents were stimulated by the application 100 μM AITC (Sigma-Aldrich). The solution was manually added to the perfusion chamber, and the currents were recorded using voltage ramps as reported in [22]. For each oocyte, we sequentially recorded three responses to AITC application, as well as the subsequent leakage current in the presence of a specific TRPA1 inhibitor: HC030031 (Sigma-Aldrich). The first response amplitude was used to normalize the data obtained on different oocytes. To induce the second response, AITC was applied together with ProTx-I or HC030031. The amplitude of this response was measured, normalized, averaged across different oocytes, and used to plot dose-response curves. Dose-response curves were approximated by the Hill equation: […]
where nH is the Hill coefficient.
Statistical data processing was performed using GraphPad Prism 9.0. To compare current amplitudes at specific toxin concentrations, either a two-tailed Student’s t-test or one-way ANOVA and Dunnett’s multiple comparison test was used. Dose-response curve parameters were compared using the F-test.
Fig. 4 Effect of ProTx-I variants on AITC-induced outward currents through TRPA1 in X. laevis oocytes. (A) Average normalized current traces for the human TRPA1 channel in the absence and presence of the selective antagonist HC030031 or ProTx-I. Data are presented as mean ± SEM (lines and shaded areas, respectively, n = 3–6 oocytes). Compound application periods are shown by solid black bars above the traces. […] (C) Dose-response curves for recombinant rProTx-I at human (hTRPA1) and rat (rTRPA1) ion channels. […] Data in B and C (mean ± SEM, n = 3–6 oocytes) are normalized to the response recorded without ProTx-I (100%)

rat TRPA1 = molecular target: T2, rat TRPA1 (Rattus norvegicus, UniProt Q6RI86); experiment: Inhibition of AITC-induced currents through rat TRPA1 in X. laevis oocytes (electrophysiology); assay type: cell-based
T2 construct: expressed in transfected cells; host or cells: Xenopus laevis oocytes (mRNA injection)
Experimental: as §1
where nH is the Hill coefficient. […]
Fig. 4 Effect of ProTx-I variants on AITC-induced outward currents through TRPA1 in X. laevis oocytes. […] Data in B and C (mean ± SEM, n = 3–6 oocytes) are normalized to the response recorded without ProTx-I (100%)

[2] = tested on: voltage-gated sodium (NaV), potassium, and calcium channels; details: cited from earlier work
Description: Due to its action at the NaV1.7, NaV1.8, and TRPA1 channels involved in pain perception and propagation, ProTx-I may be used as a model for the development of next-generation analgesics. ProTx-I consists of 35 amino acid residues, with three disulfide bonds forming an inhibitor cystine knot (ICK) motif, which challenges its heterologous production. An efficient Pro ... || Spider knottins include membrane-active toxins that affect the activation or inactivation of sodium (NaV), potassium, and calcium voltage-gated channels (so-called gating modifier toxins). The ProTx-I toxin (Protoxin-I or β/ω-theraphotoxin-Tp1a, 35 aa) is a membrane-active knottin of the Peruvian green velvet tarantula Thrixopelma pruriens. […] Among the ProTx-I targets, NaV1.7, NaV1.8, and TRPA1 channels are promising therapeutic targets for the treatment of pain and neu ...

human TRPA1 [3] = molecular target: T1, human TRPA1; details: cited from earlier work
Description: In the present study, we compared the functional activity of Met-ProTx-I and ProTx-I, with the latter being produced by hydrolysis of 6His-Met-ProTx-I, at the human TRPA1 channel expressed in X. laevis oocytes.

T1 sequence (O75762 whole entry): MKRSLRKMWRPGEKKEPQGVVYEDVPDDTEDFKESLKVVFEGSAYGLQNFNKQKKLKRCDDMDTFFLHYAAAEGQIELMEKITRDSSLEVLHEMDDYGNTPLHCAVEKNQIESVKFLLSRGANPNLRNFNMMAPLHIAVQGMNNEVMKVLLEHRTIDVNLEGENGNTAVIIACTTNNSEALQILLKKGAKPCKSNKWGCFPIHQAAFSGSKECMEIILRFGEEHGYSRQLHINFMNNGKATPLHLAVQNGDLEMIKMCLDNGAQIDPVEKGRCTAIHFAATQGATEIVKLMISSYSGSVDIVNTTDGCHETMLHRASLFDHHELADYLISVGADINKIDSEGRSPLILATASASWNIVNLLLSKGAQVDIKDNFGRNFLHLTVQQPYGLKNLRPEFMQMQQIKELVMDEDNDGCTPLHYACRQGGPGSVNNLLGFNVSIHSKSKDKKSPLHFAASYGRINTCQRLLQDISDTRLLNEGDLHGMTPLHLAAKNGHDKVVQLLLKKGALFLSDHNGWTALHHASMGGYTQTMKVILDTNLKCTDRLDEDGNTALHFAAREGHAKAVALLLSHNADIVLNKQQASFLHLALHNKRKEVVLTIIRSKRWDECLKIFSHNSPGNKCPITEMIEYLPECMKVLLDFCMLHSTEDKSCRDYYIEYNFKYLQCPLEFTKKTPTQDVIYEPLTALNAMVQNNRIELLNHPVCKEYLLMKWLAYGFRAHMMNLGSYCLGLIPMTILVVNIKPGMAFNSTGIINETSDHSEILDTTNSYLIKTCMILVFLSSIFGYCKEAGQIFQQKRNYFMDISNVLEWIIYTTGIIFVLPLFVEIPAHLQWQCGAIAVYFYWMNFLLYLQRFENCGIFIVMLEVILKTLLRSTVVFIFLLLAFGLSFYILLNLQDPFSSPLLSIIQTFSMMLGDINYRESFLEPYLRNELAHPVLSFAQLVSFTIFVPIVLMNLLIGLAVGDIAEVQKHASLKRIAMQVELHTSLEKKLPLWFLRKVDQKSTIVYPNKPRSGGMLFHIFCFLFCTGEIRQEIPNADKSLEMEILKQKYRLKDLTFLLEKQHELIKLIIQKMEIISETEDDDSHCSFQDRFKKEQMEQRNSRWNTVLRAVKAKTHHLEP
T2 sequence (Q6RI86 whole entry): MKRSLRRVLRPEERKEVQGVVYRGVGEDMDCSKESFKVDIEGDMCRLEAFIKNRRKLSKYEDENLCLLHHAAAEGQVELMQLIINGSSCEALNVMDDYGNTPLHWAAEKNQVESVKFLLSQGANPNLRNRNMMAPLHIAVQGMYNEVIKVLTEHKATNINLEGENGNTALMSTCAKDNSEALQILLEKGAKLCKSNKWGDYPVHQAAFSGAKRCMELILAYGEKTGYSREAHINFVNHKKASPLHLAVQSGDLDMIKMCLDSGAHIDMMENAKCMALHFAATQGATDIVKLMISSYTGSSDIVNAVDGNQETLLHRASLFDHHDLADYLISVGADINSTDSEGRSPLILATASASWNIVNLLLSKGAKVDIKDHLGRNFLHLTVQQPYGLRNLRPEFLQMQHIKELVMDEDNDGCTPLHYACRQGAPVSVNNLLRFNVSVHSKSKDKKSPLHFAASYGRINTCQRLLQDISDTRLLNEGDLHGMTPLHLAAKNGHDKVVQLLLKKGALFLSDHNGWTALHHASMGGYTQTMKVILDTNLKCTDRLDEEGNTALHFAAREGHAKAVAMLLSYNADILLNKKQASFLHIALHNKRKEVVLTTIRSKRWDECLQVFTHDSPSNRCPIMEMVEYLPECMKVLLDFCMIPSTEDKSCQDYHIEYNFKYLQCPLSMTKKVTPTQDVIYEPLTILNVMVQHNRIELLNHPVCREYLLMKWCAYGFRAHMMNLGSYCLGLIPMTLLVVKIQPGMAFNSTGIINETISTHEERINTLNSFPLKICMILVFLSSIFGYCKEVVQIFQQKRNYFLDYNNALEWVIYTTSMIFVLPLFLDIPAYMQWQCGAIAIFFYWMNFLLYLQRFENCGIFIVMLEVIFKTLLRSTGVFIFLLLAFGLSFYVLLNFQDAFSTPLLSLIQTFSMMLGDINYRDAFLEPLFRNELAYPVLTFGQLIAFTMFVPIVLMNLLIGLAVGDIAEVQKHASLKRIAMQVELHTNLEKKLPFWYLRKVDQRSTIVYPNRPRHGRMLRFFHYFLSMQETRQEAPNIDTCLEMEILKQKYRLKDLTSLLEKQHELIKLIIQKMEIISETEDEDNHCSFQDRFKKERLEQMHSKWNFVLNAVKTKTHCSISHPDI

Molecule | IC50 (human TRPA1 [1]) [µM] | residual current (inhibited currents to) (human TRPA1 [1]) | further results
CC(C)c1ccc(NC(=O)Cn2cnc3c2c(=O)n(C)c(=O)n3C)cc1 [HC030031] | – | – | inhibition of current through TRPA1 (in words) (human TRPA1 [1]): This effect was similar to that of 50 μM HC0300301
CSCC[C@H](N)C(=O)N[C@@H](CCC(=O)O)C(=O)N[C@H]1CSSC[C@@H]2NC(=O)[C@@H]3CSSC[C@@H](C(=O)N[C@H](C(=O)N[C@@H](Cc4c[nH]c5ccccc45)C(=O)N[C@@H](CC(=O)O)C(=O)NCC(=O)N[C@H](C(=O)N[C@@H](Cc4ccccc4)C(=O)N[C@@H](CO)C(=O)O)[C@@H](C)O)C(C)C)NC(=O)[C@H](Cc4c[nH]c5ccccc45)NC(=O)CNC(=O)[C@H](Cc4c[nH]cn4)NC(=O)[C@H](CCCNC(=N)N)NC(=O)[C@H](CCCNC(=N)N)NC(=O)[C@H](CO)NC(=O)[C@H](CSSC[C@H](NC(=O)CNC(=O)CNC(=O)[C@H](CC(C)C)NC(=O)[C@H](Cc4c[nH]c5ccccc45)NC(=O)[C@H](Cc4ccc(O)cc4)NC(=O)[C@H](CCCNC(=N)N)NC1=O)C(=O)N[C@@H](CO)C(=O)N[C@@H](C)C(=O)NCC(=O)N[C@@H](CCC(N)=O)C(=O)N[C@@H]([C@@H](C)O)C(=O)N3)NC(=O)[C@H](C(C)C)NC(=O)[C@H](CC(C)C)NC(=O)[C@H](Cc1c[nH]cn1)NC(=O)[C@H](CCCCN)NC2=O [Met-ProTx-I] (H-MECRYWLGGCSAGQTCCKHLVCSRRHGWCVWDGTFS-OH; disulfide 3-17, 10-22, 16-29) | 8.9 ± 7 | ~ 60% | –
CC(C)C[C@@H]1NC(=O)[C@H](Cc2c[nH]c3ccccc23)NC(=O)[C@H](Cc2ccc(O)cc2)NC(=O)[C@H](CCCNC(=N)N)NC(=O)[C@@H](NC(=O)[C@@H](N)CCC(=O)O)CSSC[C@@H]2NC(=O)[C@@H]3CSSC[C@@H](C(=O)N[C@H](C(=O)N[C@@H](Cc4c[nH]c5ccccc45)C(=O)N[C@@H](CC(=O)O)C(=O)NCC(=O)N[C@H](C(=O)N[C@@H](Cc4ccccc4)C(=O)N[C@@H](CO)C(=O)O)[C@@H](C)O)C(C)C)NC(=O)[C@H](Cc4c[nH]c5ccccc45)NC(=O)CNC(=O)[C@H](Cc4c[nH]cn4)NC(=O)[C@H](CCCNC(=N)N)NC(=O)[C@H](CCCNC(=N)N)NC(=O)[C@H](CO)NC(=O)[C@H](CSSC[C@H](NC(=O)CNC(=O)CNC1=O)C(=O)N[C@@H](CO)C(=O)N[C@@H](C)C(=O)NCC(=O)N[C@@H](CCC(N)=O)C(=O)N[C@@H]([C@@H](C)O)C(=O)N3)NC(=O)[C@H](C(C)C)NC(=O)[C@H](CC(C)C)NC(=O)[C@H](Cc1c[nH]cn1)NC(=O)[C@H](CCCCN)NC2=O [ProTx-I (Smartox)] | 0.41 ± 0.16 | ~ 5% | –
CC(C)C[C@@H]1NC(=O)[C@H](Cc2c[nH]c3ccccc23)NC(=O)[C@H](Cc2ccc(O)cc2)NC(=O)[C@H](CCCNC(=N)N)NC(=O)[C@@H](NC(=O)[C@@H](N)CCC(=O)O)CSSC[C@@H]2NC(=O)[C@@H]3CSSC[C@@H](C(=O)N[C@H](C(=O)N[C@@H](Cc4c[nH]c5ccccc45)C(=O)N[C@@H](CC(=O)O)C(=O)NCC(=O)N[C@H](C(=O)N[C@@H](Cc4ccccc4)C(=O)N[C@@H](CO)C(=O)O)[C@@H](C)O)C(C)C)NC(=O)[C@H](Cc4c[nH]c5ccccc45)NC(=O)CNC(=O)[C@H](Cc4c[nH]cn4)NC(=O)[C@H](CCCNC(=N)N)NC(=O)[C@H](CCCNC(=N)N)NC(=O)[C@H](CO)NC(=O)[C@H](CSSC[C@H](NC(=O)CNC(=O)CNC1=O)C(=O)N[C@@H](CO)C(=O)N[C@@H](C)C(=O)NCC(=O)N[C@@H](CCC(N)=O)C(=O)N[C@@H]([C@@H](C)O)C(=O)N3)NC(=O)[C@H](C(C)C)NC(=O)[C@H](CC(C)C)NC(=O)[C@H](Cc1c[nH]cn1)NC(=O)[C@H](CCCCN)NC2=O [rProTx-I] | 0.84 ± 0.19 | ~ 5% | IC50 (rat TRPA1; rTRPA1 in X. laevis oocytes, outward currents induced by 100 μM AITC, calcium-free ND-96, pH 7.4, voltage ramps, Hill equation fit, n = 3–6 oocytes, rat vs human p = 0.006 (F-test)): 0.25 ± 0.07 µM
ProTx-I | – | – | species selectivity, rat versus human TRPA1 (in words) (rat TRPA1; rat versus human TRPA1, difference in IC50 p = 0.006 (F-test)): different activities relative to human and rat TRPA1 channels; inhibition of voltage-gated channels (in words) [2]: inhibits voltage-gated sodium (NaV), potassium, and calcium channels; also recorded: effectively inhibits a number of voltage-gated channels; species selectivity, human versus mouse TRPA1 (in words) (human TRPA1 [3]): higher activity at the human channel
